In US20260097012A1, “COMPOSITIONS AND METHODS FOR TREATING GRAFT-RELATED ARRHYTHMIA” (BlueRock Therapeutics LP, priority 2022, published 2026):

Test system: graft related arrhythmias (sustained VT)
Assay: Treatment of graft-induced arrhythmia in pig model (myocardial infarction plus cardiomyocyte graft)
Conditions: pig P2, after VT on day 10/11; by day 13 onwards

SMILES: CCCCc1oc2ccccc2c1C(=O)c1cc(I)c(OCCN(CC)CC)c(I)c1 [amiodarone]
- effect of adjusting the dosage on rhythm: effective at achieving normal sinus rhythm
